In patent publication US20250129102A1, “CRYSTAL FORM OF PYRIMIDINE HETEROCYCLIC COMPOUND AND PREPARATION METHOD THEREFOR” (D3 Bio (Wuxi) Co., Ltd., priority 2021, published 2025):
pIC50: −log10 of the molar value.

Columns and labels:
[1] = Pharmacokinetics by oral administration and intravenous injection in CD mice; format: in vivo; details: for Area under the plasma concentration-time curve, AUCu: AUC0-last × PPB(Unbound %); for Vd: CD, iv, 2 mg/kg; for AUC(0-t): read-out: Area under the plasma concentration-time curve, AUC0-last
Protocol: (§1) The mixture was vortexed and sonicated to prepare a 1 mg/mL clear solution, which was filtered through a microporous membrane for later use. Male CD mice aged 7 to 10 weeks were selected, and administered candidate compound solutions intravenously or orally. Whole blood was collected for a certain period of time, and prepared to obtain plasma. Drug concentration was analyzed by LC-MS/MS method, and pharmacokinetic parameters were calculated by Phoenix WinNonlin software (Pharsight, USA).

[2] = Pharmacokinetics by oral administration and intravenous injection in SD rats; format: in vivo; details: for Area under the plasma concentration-time curve, AUCu: AUC0-last × PPB(Unbound %); for Vd: SD, iv, 2 mg/kg; for AUC(0-t): read-out: Area under the plasma concentration-time curve, AUC0-last
Protocol: • 1) Assay on the pharmacokinetics of the assay compound by oral administration and intravenous injection in SD rats
as §1, with “The assay compound was mixed with 5% o dimethyl sulfoxide/95% o (10% hydroxypropyl-β-cyclodextrin) solution. The” for “The”, “SD rats” for “CD mice”

[3] = test system: KRAS^G12C-mutated MIA-PA-CA-2 cells; experiment: cells; details: Homo sapiens, MIA PaCa-2, 72 h
Protocol: The main reagent used in this assay included CellTiter-Glo (Promega, Cat. No. G7573).
The main instrument used in this assay was PerkinElmer EnVision multi-function microplate reader.
The fluorescence value was read by EnVision. • 6) Data analysis: The inhibition rate of cells in each well was calculated according to the following equation:
Y=Bottom+(Top−Bottom)/(1+10^((Log IC50−X)*HillSlope))

[4] = Body weight and tolerance in the Mia PaCa-2 tumor model; format: in vivo; details: each dose group (10 and 30 mg/kg PO QD × 22)
Protocol: Assay on pharmacodynamics in vivo in a subcutaneously transplanted tumor model of human pancreatic cancer Mia PaCa-2 cells in Balb/c Nude mice
Cell inoculation: 0.2 mL (5×10^6 cells/mouse) of Mia PaCa-2 cells (plus Matrigel, 1:1 by volume) were subcutaneously inoculated into the right back of each mouse. When the average tumor volume reached 190 mm^3, mice were randomized into groups based on tumor volume and administration was initiated according to the protocol in Table 15.

[5] = Protein binding rate in plasma by equilibrium dialysis, beagle dogs; format: in vitro ADME; details: 2 μM, equilibrium dialysis 4 hours
Protocol: (§2) Protein binding rate of the assay compound in plasma of CD-1 mice, SD rats, beagle dogs, cynomolgus monkeys and human was determined by equilibrium dialysis. Plasma samples with a compound concentration of 2 μM were prepared using plasma of the above five species, placed in a 96-well equilibrium dialysis device, and dialyzed with phosphate buffer solution at 37±1° C. for 4 hours. Warfarin was used as the control compound in this assay. The concentrations of the assay compound in plasma and dialysis buffer were determined by LC-MS/MS method.

[6] = Protein binding rate in plasma by equilibrium dialysis, cynomolgus monkeys; format: in vitro ADME; details: 2 μM, equilibrium dialysis 4 hours
Protocol: as §2

[7] = intravenous injection, 2.0 mg/kg

C=C(F)C(=O)N1CCN(c2nc(OC[C@@]34CCCN3C[C@H](F)C4)nc3c2CO[C@H](c2c(F)c(N)cc(C)c2C(F)(F)F)C3)C[C@@H]1CC#N [Compound of formula (I)]
Area under the plasma concentration-time curve, AUCu [1, 7]: 155.6 nM·h | Vd ([1]; male, mouse, plasma, intravenous injection, 2.0 mg/kg, Vdss/PPB(Unbound %), read-out: Apparent volume of distribution, Vdss, u): 32.3 L/kg | Vd ([1]; male, mouse, plasma, intravenous injection, 2.0 mg/kg, read-out: Apparent volume of distribution, Vdss): 3.9 L/kg | AUC(0-t) ([1]; male, mouse, plasma, intravenous injection, 2.0 mg/kg): 1300 nM·h | clearance ([1]; male, mouse, plasma, intravenous injection, 2.0 mg/kg, read-out: Clearance rate, CL): 2.44 L/h/kg | half-life ([1]; male, mouse, plasma, intravenous injection, 2.0 mg/kg, read-out: Half-life time, T1/2 (converted)): 1.7 h | AUC(0-t) ([1]; male, mouse, plasma, oral administration, 10.3 mg/kg): 1420 nM·h | bioavailability ([1]; male, mouse, plasma, oral administration, 10.3 mg/kg, read-out: Bioavailability F (%)): 21.9% | Cmax ([1]; male, mouse, plasma, oral administration, 10.3 mg/kg, read-out: Peak concentration, Cmax): 0.431 µM | Tmax ([1]; male, mouse, plasma, oral administration, 10.3 mg/kg, read-out: Time-to-peak, Tmax): 1 h | Area under the plasma concentration-time curve, AUCu ([1]; oral administration, 10.3 mg/kg): 170.6 nM·h | Peak concentration, Cmax, u ([1]; oral administration, 10.3 mg/kg, Cmax × PPB(Unbound %)): 0.0517 µM | Area under the plasma concentration-time curve, AUCu [2, 7]: 31.3 nM·h | Vd ([2]; male, rat, plasma, intravenous injection, 2.0 mg/kg, Vdss/PPB(Unbound %), read-out: Apparent volume of distribution, Vdss, u): 221 L/kg | Vd ([2]; male, rat, plasma, intravenous injection, 2.0 mg/kg, read-out: Apparent volume of distribution, Vdss): 10.6 L/kg | AUC(0-t) ([2]; male, rat, plasma, intravenous injection, 2.0 mg/kg): 653 nM·h | clearance ([2]; male, rat, plasma, intravenous injection, 2.0 mg/kg, read-out: Clearance rate, CL): 4.29 L/h/kg | half-life ([2]; male, rat, plasma, intravenous injection, 2.0 mg/kg, read-out: Half-life time, T1/2 (converted)): 1.9 h | AUC(0-t) ([2]; male, rat, plasma, oral administration, 9.8 mg/kg): 995 nM·h | bioavailability ([2]; male, rat, plasma, oral administration, 9.8 mg/kg, read-out: Bioavailability F (%)): 30.5% | Cmax ([2]; male, rat, plasma, oral administration, 9.8 mg/kg, read-out: Peak concentration, Cmax): 0.22 µM | Tmax ([2]; male, rat, plasma, oral administration, 9.8 mg/kg, read-out: Time-to-peak, Tmax): 1.5 h | Area under the plasma concentration-time curve, AUCu ([2]; oral administration, 9.8 mg/kg): 47.8 nM·h | Peak concentration, Cmax, u ([2]; oral administration, 9.8 mg/kg, Cmax × PPB(Unbound %)): 0.0106 µM | pIC50 [3]: 9.36 | body weight of mice [4]: stable | tolerance [4]: no obvious intolerance | Protein unbound rate (%) [5]: 3.3% | Protein unbound rate (%) [6]: 7.8%
